Measured values: patent US20180057505A1, “BICYCLIC HETEROARYL COMPOUNDS USEFUL AS INHIBITORS OF THE PAR-2 SIGNALING PATHWAY” (VERTEX PHARMACEUTICALS INCORPORATED, priority 2015, published 2018)

Experiments:
Assay type in all cases: cell-based
PAR2 (HT-29 cells) [1] = biological target: T1, PAR2 (HT-29 cells) (Homo sapiens, UniProt P55085); test: Ca FLIPR TETRA assay, ANTAGONIST mode, activator 8 μM SLIGKV; conditions: HT-29 cells, activator 8 μM SLIGKV
T1 construct: host or cells: HT-29
T1 sequence (P55085 26-397): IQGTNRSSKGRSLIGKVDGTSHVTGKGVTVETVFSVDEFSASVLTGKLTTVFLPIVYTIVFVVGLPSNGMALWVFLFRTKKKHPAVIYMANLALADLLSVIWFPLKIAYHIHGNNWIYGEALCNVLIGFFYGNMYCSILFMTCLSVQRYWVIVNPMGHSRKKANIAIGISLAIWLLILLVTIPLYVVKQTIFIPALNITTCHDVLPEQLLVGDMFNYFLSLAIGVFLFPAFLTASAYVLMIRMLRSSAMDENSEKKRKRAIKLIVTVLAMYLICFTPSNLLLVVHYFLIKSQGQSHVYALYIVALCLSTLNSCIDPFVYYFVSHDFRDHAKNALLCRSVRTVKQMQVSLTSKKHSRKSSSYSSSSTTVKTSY
Procedure, shortened: (§1)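 HT-29 cells in 1% FBS/McCoy's overnight, loaded with FLIPR Calcium 5 dye (45 min 37 °C, 15 min r.t.); compounds added and read for intrinsic Ca2+ activation, then after 30 min r.t. stimulated with fixed activator: 8 μM SLIGKV, 0.6 μM UTP, 1 U/mL thrombin or 3.1 U/mL trypsin (final).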

PAR2 (HT-29 cells) [2] = biological target: T1, PAR2 (HT-29 cells); test: Ca FLIPR TETRA assay, ANTAGONIST mode, activator 3.1 U/mL trypsin; conditions: for IC50: HT-29 cells, activator 3.1 U/mL trypsin
Procedure, shortened: as §1

[3] = system: Thrombin-stimulated Ca2+ response in HT-29 cells; test: Ca FLIPR TETRA assay, ANTAGONIST mode, activator 1 U/mL Thrombin; conditions: for IC50: HT-29 cells, activator 1 U/mL Thrombin; for Thrombin, % @ 50: @ 50 (μM)
Procedure, shortened: as §1

[4] = system: UTP-stimulated Ca2+ response in HT-29 cells; test: Ca FLIPR TETRA assay, ANTAGONIST mode, activator 0.6 μM UTP; conditions: for IC50: HT-29 cells, activator 0.6 μM UTP; for inhibition at 50 µM: HT-29
Procedure, shortened: as §1

[5] = Method A: maximal concentration of antagonist 0.1, 1 or 2 μM
[6] = maximal antagonist concentration per Method (A: 0.1, 1 or 2 μM; B: 50 μM)

Structure (SMILES)	IC50 (PAR2 (HT-29 cells) [1]; [5]) [nM]	IC50 (PAR2 (HT-29 cells) [2]; [5]) [nM]	IC50 ([3]; Homo sapiens) [nM]	IC50 ([4]; Homo sapiens) [nM]	IC50 (PAR2 (HT-29 cells) [1]; [6]) [nM]	IC50 (PAR2 (HT-29 cells) [2]; [6]) [nM]	inhibition at 50 µM ([4]; Homo sapiens) [%]	IC50 [3] [nM]	IC50 [4] [nM]	Trypsin, % @ 50 (PAR2 (HT-29 cells) [2]; @ 50 (μM)) [% @ 50]	Thrombin, % @ 50 [3] [% @ 50]
CC(C)(C)c1cc(-c2ccc(Cl)c(F)c2)nc2cc(C(=O)N3CCN(C(=O)[C@@H]4CCC[C@@H]4C(=O)O)CC3(C)C)oc12 [Example I-545]	0.6	0.9	> 2000	> 2000	–	–	–	–	–	–	–
Cc1nc(N2CCN(C(=O)c3cc4nc(-c5ccc(Cl)c(F)c5)cc(C(C)(C)C)c4o3)C(C)(C)C2)ccc1C(=O)O [Example I-411]	0.2	0.3	> 2000	> 2000	–	–	–	–	–	–	–
CC(C)c1cc(-c2ccc(F)cc2)nc2cc(C(=O)N3CCN(C(=O)[C@H](O)CC(C)(C)C)C[C@H]3C)oc12 [Example I-99]	–	–	3900	–	62	430	63	–	–	–	–
CC(C)(C)c1cc(-c2ccc(Cl)c(F)c2)nc2cc(C(=O)N3CCN(c4ncc(-c5nnn[nH]5)cn4)CC3(C)C)oc12 [Example I-331]	1.3	2.8	1800	> 2000	–	–	–	–	–	–	–
CC(C)(C)c1cc(-c2ccc(Cl)cc2)nc2cc(C(=O)N3CCN(c4nccc(C(=O)O)n4)CC3(C)C)oc12 [Example I-457]	0.8	0.9	1900	1500	–	–	–	–	–	–	–
CC1(C)CCC(c2cc(C(C)(C)C)c3oc(C(=O)N4CCN(c5ncc(C(=O)O)cc5F)CC4(C)C)cc3n2)CC1 [Example I-391]	0.4	0.4	> 1010	1010	–	–	–	–	–	–	–
CC(C)c1cc(-c2ccc(F)cc2)nc2oc(C(=O)N3CCNC(=O)C3(C)C)nc12 [Example I-133]	–	–	20000	20000	5900	7500	–	–	–	–	–
CC(Oc1ccccc1)C(=O)N1CCN(C(=O)c2cc3nc(-c4ccc(F)cc4)cc(C(C)C)c3o2)C[C@@H]1C (stereo partly drawn) [Example I-85]	–	–	> 50000	> 50000	30	250	–	–	–	–	–
Cc1nc(C)c(N2CCN(C(=O)c3cc4nc(-c5ccc(Cl)cc5)cc(C(C)(C)C)c4o3)C(C)(C)C2=O)o1 [Example I-386]	50	40	> 2000	> 2000	–	–	–	–	–	–	–
CC(C)(C)c1cc(-c2ccc(Cl)c(F)c2)nc2cc(C(=O)N3CCN(c4cccc(C(=O)O)n4)C(=O)C3(C)C)oc12 [Example I-459]	1.8	1.3	350	660	–	–	–	–	–	–	–
CN1CCN(C(=O)c2cc3nc(-c4ccc(F)c(Cl)c4)cc(C(C)(C)C)c3o2)C(C)(C)C1=O [Example I-243]	–	–	> 2000	> 2000	4	7.4	–	–	–	–	–
CC(C)(C)c1cc(-c2ccc(Cl)c(F)c2)nc2cc(C(=O)N3CCN(c4ccccn4)C(=O)C3(C)C)oc12 [Example I-329]	12	13	> 2000	> 2000	–	–	–	–	–	–	–
CC(C)(C)c1cc(-c2ccc(Cl)c(F)c2)nc2cc(C(=O)N3CCNC(=O)C3(C)C)oc12 [Example I-172, 4-[7-tert-butyl-5-(4-chloro-3-fluoro-phenyl)furo[3,2-b]pyridine-2-carbonyl]-3,3-dimethyl-piperazin-2-one]	–	–	> 1000	> 1000	10	12	–	–	–	–	–
CC(C)(C)c1cc(-c2ccc(Cl)c(F)c2)nc2cc(C(=O)N3CCN(c4nc(C(=O)O)ccc4F)CC3(C)C)oc12 [Example I-501]	0.1	0.1	–	–	–	–	–	> 2000	> 2000	–	–
CC(C)(C)c1cc(C2CCC(F)(F)CC2)nc2cc(C(=O)N3CCN(C(=O)[C@H]4CC[C@@H](C(=O)O)CC4)CC3(C)C)oc12 [Example I-229]	–	–	> 2000	> 2000	24	28	–	–	–	–	–
CC(C)c1cc(-c2ccc(F)cc2)nc2cc(C(=O)N3CCN(C(=O)[C@H]4C[C@@](C)(O)C4)CC3(C)C)oc12 [Example I-136]	–	–	> 1000	> 1000	6.4	7.4	–	–	–	–	–
CC(C)c1cc(-c2ccc(F)cc2)nc2cc(C(=O)N3CCN(C(=O)C(C)(C)O)C[C@H]3C)oc12 [Example I-101]	–	–	18000	13000	7600	9100	–	–	–	–	–
COc1nc(N2CCN(C(=O)c3cc4nc(C5CCC(C)(C)CC5)cc(C(C)(C)C)c4o3)C(C)(C)C2)ccc1C(=O)O [Example I-535]	2.1	1.2	–	–	–	–	–	> 2000	> 2000	–	–
CC1(C)CN(C(=O)C2CC(O)(C(F)(F)F)C2)CCN1C(=O)c1cc2nc(-c3ccc(F)cc3)cc(C3(C#N)CC(F)(F)C3)c2o1 (stereo not drawn) [Example I-205]	–	–	> 1000	> 1000	0.6	1	–	–	–	–	–
Cc1nnc(C(=O)N2CCN(C(=O)c3cc4nc(-c5ccc(C(F)(F)F)cc5)cc(C(C)(C)C)c4o3)C(C)(C)C2)o1 [Example I-175]	–	–	> 1000	> 1000	16	16	–	–	–	–	–
Cc1cc(C(=O)O)nc(N2CCN(C(=O)c3cc4nc(-c5ccc(Cl)c(F)c5)cc(C(C)(C)C)c4o3)C(C)(C)C2=O)n1 [Example I-409]	0.3	0.5	–	–	–	–	–	> 1010	560	–	–
CC1(C)C(=O)NCCN1C(=O)c1cc2nc(-c3ccc(F)cc3)cc(C3CCC(F)(F)CC3)c2o1 [Example I-212]	–	–	> 2000	> 2000	13	43	–	–	–	–	–
CC(C)(C)c1cc(-c2ccc(C(F)(F)F)cc2)nc2cc(C(=O)N3CCN(C(=O)c4nnc[nH]4)CC3(C)C)oc12 [Example I-173]	–	–	> 1000	> 1000	4.8	7.5	–	–	–	–	–
CC(C)(C)c1cc(-c2ccc(F)cc2)nc2cc(C(=O)N3CCN(C(=O)C4CC(C(=O)O)C4)CC3(C)C)oc12 (stereo not drawn) [Example I-189]	–	–	> 1000	> 1000	17	28	–	–	–	–	–
Cc1nc(N2CCN(C(=O)c3cc4nc(C5CCC(C)(C)CC5)cc(C(C)(C)C)c4o3)C(C)(C)C2)ncc1C(=O)O [Example I-465]	0.5	1.2	> 1010	960	–	–	–	–	–	–	–
CC(C)c1cc(-c2ccc(F)cc2)nc2cc(C(=O)N3CCN(C(=O)OC(C)(C)C)C[C@@H]3C)oc12 [Example I-79]	–	–	–	> 50000	1700	–	–	–	–	60	26
CC(C)(C)c1cc(-c2ccc(Cl)c(F)c2)nc2cc(C(=O)N3CCN(c4ncc(C(=O)O)cc4F)CC3(C)C)oc12 [Example I-396]	0.3	0.3	1010	1060	–	–	–	–	–	–	–
CC(C)c1cc(-c2ccc(F)cc2)nc2cc(C(=O)N3CCN(C(=O)C(C)(C)C)CC3(C)C)oc12 [Example I-14]	–	–	–	–	2.8	3	59	–	–	–	57
CC(C)c1nc(-c2ccc(F)cc2)nc2cc(C(=O)N3CCN(C(=O)[C@H](O)CC(C)(C)C)[C@@H](C)C3)oc12 [Example I-125]	–	–	32000	20000	260	1900	–	–	–	–	–
Cc1cc(-c2cc(C(C)(C)C)c3oc(C(=O)N4CCNC(=O)C4(C)C)cc3n2)ccc1F [Example I-161]	–	–	> 1000	> 1000	16	25	–	–	–	–	–
